Some test systems named below: SN12C; KM12; RXF 393; M14; HOP-92; OVCAR-3; SR; T47D; TK-10; SW-620; SF-295; A549; HT-29; SNB-75; NCI-H226; HL-60; NCI-H23; UO-31; SF-539; OVCAR-8.
What all share (experiment): inhibition of tumour cell growth, NCI panel, 48 h

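In this assay, cells in 96-well plates receive the compound at five concentrations for 48 hours. Endpoints are linearly interpolated between the surrounding concentrations. Abbreviation: GI50, concentration required for 50% inhibition of growth.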 Calls of active or inactive are those of the source. Rule as the data show it: active = GI50 up to about 1.1 µM and inactive = higher.

`Cc1c2c3cc(O)ccc3nc-2n(C)c2ccccc12`: the GI50 is 0.875 µM (active) in the test with SN12C; 1.69 µM (inactive) with KM12; 1.09 µM (active) in the test on RXF 393; 1.58 µM (inactive) in the test with M14; 1.93 µM (inactive) in the test on HOP-92; 2.37 µM (inactive) with OVCAR-3. In addition, the GI50 was 0.782 µM (active) with SR; 2.68 µM (inactive) with T47D; 2.98 µM (inactive) with TK-10; 0.497 µM (active) in the test with SW-620; 1.59 µM (inactive) in the test with SF-295; 0.938 µM (active) in the test with A549. For the same molecule, the GI50 with HT-29 was 1.1 µM (active); with SNB-75, 2.45 µM (inactive); in the test on NCI-H226 it was 2.86 µM (inactive); with HL-60, 2.34 µM (inactive); in the test with NCI-H23, 2.24 µM (inactive); in the test on UO-31 it was 0.857 µM (active). The GI50 with SF-539 was 1.7 µM (inactive); with OVCAR-8 it was 0.755 µM (active).

As to `CCCCC1Cc2cc(O)ccc2-c2n1c1cc(O)ccc1[n+]2C.CCCCC1Cc2cc(O)ccc2-c2n1c1ccc(O)cc1[n+]2C` (stereo not given), the GI50 with SN12C was 5.58 µM (inactive); in the test with KM12 it was 28.2 µM (inactive); in the test with RXF 393 it was 34 µM (inactive); with M14, 37.9 µM (inactive); in the test on HOP-92, 9.55 µM (inactive); with OVCAR-3, 10.7 µM (inactive). The GI50 is 56.5 µM (inactive) in the test with SR; 22.3 µM (inactive) in the test on T47D; 22.1 µM (inactive) in the test on TK-10; 32.2 µM (inactive) with SW-620; 4.82 µM (inactive) with SF-295; 22.9 µM (inactive) in the test on A549. For the same molecule, the GI50 is 41.7 µM (inactive) in the test on HT-29; 12.7 µM (inactive) with SNB-75; 41 µM (inactive) in the test with NCI-H226; 26.1 µM (inactive) in the test with HL-60; 2.59 µM (inactive) in the test with NCI-H23; 65.6 µM (inactive) in the test with UO-31. Moreover, the GI50 in the test on SF-539 is 40.3 µM (inactive); in the test on OVCAR-8 it was 28.3 µM (inactive).

With `CCOC(=O)/C(C#N)=C/c1ccc2c(c1)CC1(C2)Cc2cc(CC)c(C(C)O)cc2C1` (stereo not given), the GI50 is 14.2 µM (inactive) with SN12C; 19.6 µM (inactive) with KM12; 6.79 µM (inactive) in the test on RXF 393; 5.32 µM (inactive) in the test on M14; 16.5 µM (inactive) in the test with HOP-92; 8.04 µM (inactive) in the test on OVCAR-3. In addition, the GI50 in the test with SR was 5.05 µM (inactive); in the test on T47D it was 27.9 µM (inactive); in the test with TK-10, 25.5 µM (inactive); in the test on SW-620, 5.38 µM (inactive); with SF-295, 15.7 µM (inactive); with A549, 44.1 µM (inactive). For the same molecule, the GI50 in the test on HT-29 is 19.1 µM (inactive); with SNB-75 it was 8.38 µM (inactive); in the test with NCI-H226 it was 19.3 µM (inactive); in the test on HL-60, 3.03 µM (inactive); in the test on NCI-H23, 13.5 µM (inactive); in the test with UO-31, 21.4 µM (inactive). In addition, the GI50 with SF-539 is 9.82 µM (inactive); in the test on OVCAR-8, 15 µM (inactive).

As for `CCN(CC)CCn1c2ccccc2c(=O)c2c(O)ccc(O)c21`, the GI50 in the test with SN12C was 30.8 µM (inactive); in the test on KM12, 49.2 µM (inactive); in the test on RXF 393, 19 µM (inactive); in the test on M14 it was 42 µM (inactive); in the test on HOP-92, 19.4 µM (inactive); in the test with OVCAR-3 it was 31.5 µM (inactive). Moreover, the GI50 in the test with SR is 12.4 µM (inactive); with T47D, 18.2 µM (inactive); with TK-10 it was 31.6 µM (inactive); in the test on SW-620, 13.8 µM (inactive); with SF-295, 22.5 µM (inactive); in the test on A549 it was 83.9 µM (inactive). Besides, the GI50 with HT-29 was 35.9 µM (inactive); with SNB-75, 22.3 µM (inactive); in the test on NCI-H226 it was 53.6 µM (inactive); in the test with HL-60 it was 6.49 µM (inactive); with NCI-H23 it was 45.6 µM (inactive); in the test on UO-31, 47.4 µM (inactive). Further, the GI50 with SF-539 is 33.8 µM (inactive); in the test with OVCAR-8, 19.6 µM (inactive).
